The target in the assay is T1, Angiotensin-converting enzyme (Oryctolagus cuniculus, UniProt P12822).
T1 sequence (P12822 whole entry): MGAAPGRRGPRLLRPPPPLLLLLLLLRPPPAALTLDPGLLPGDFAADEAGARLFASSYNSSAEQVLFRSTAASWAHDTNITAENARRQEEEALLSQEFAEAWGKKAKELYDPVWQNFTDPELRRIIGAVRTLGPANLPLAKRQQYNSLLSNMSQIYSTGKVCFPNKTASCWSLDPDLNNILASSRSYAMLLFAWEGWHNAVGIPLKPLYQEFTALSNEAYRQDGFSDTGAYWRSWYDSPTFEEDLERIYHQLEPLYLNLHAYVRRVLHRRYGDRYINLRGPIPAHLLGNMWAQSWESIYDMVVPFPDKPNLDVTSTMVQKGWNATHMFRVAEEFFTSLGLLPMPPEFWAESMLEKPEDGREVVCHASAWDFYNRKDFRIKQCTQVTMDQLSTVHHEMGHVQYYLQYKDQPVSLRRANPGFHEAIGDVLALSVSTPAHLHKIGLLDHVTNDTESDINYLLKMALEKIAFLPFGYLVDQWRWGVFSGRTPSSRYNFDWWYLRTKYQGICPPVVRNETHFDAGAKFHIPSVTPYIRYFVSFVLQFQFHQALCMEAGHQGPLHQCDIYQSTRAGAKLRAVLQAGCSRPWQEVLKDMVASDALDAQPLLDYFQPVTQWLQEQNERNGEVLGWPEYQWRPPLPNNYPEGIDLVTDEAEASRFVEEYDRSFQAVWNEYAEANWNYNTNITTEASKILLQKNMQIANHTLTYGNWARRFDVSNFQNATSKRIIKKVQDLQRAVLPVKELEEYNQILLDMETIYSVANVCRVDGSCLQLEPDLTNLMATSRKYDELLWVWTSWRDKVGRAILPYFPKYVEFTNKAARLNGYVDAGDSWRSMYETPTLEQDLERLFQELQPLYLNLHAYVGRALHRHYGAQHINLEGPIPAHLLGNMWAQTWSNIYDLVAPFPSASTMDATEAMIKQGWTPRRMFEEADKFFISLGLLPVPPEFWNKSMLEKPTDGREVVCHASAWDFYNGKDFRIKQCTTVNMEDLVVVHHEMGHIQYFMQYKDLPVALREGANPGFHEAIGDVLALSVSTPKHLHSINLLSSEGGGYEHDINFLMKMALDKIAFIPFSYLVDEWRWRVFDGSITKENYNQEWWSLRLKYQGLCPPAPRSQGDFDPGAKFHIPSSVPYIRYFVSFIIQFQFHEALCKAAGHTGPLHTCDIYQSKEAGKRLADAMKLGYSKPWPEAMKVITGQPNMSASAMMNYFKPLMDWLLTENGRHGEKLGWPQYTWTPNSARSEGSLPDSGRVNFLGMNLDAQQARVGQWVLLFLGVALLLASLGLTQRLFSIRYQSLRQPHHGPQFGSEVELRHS
Description: In vitro inhibitory activity was evaluated against angiotensin converting enzyme from rabbit in bovine buffered base.

The values below come from ChEMBL document CHEMBL1125956, “A new potent inhibitor for angiotensin converting enzyme: (R,S)-captopril-F3” (Bioorg Med Chem Lett, 1991).

As usually defined, the IC50 is the concentration at which inhibition is half-maximal. Higher therefore signals a need for much substance.

In turn, `O=C(O)[C@@H]1CCCN1C(=O)[C@H](CS)C(F)(F)F` came in with an IC50 of 480 nM.
Compound `O=C(O)[C@@H]1CCCN1C(=O)[C@@H](CS)C(F)(F)F` came in with an IC50 of 0.29 nM.
